Each block holds one molecule with its values, some of them ahead of it.
Columns and labels:
[1] = system: panelists (descriptive panel); test: Descriptive panel: flavor attributes and intensities as a function of rebaudioside B content (Example 6); assay type: in vivo, human; conditions: for Anise, comparison between the samples / Artificial Sweetener/Chemical, comparison between the samples / Sweetness, comparison between the samples / Total Flavor, comparison between the samples / True Bitter, comparison between the samples / Mouthcoating, comparison between the samples / Total Off Flavor, comparison between the samples: significant at the 95% confidence level
Method: A descriptive panel was used to quantify flavor attributes and intensities of varying levels of rebaudioside B added to rebaudioside A (which was 97% pure and contained 0.62% rebaudioside B). […] An 8% sucrose solution as a control. The solutions were prepared in neutral pH water. Other high intensity sweeteners included in the testing were Aspartame at 500 ppm, ASK at 750 ppm, Sucralose at 250 ppm, and Stevia at 500 ppm.
Before conducting the testing the ten panelists were extensively trained in the use of standardized vocabulary to describe the appearance, aroma, flavor, and texture of a wide variety of products in order to rate the samples for sweetness, bitterness, off flavor, chemical or artificial sweetener flavor, anise, and mouth coating. Each such attribute was evaluated on a first and second sip, and on after-taste. The testing began with a session to orient the panelists during which they tasted the samples and discussed the flavor characteristics. They also tasted and discussed references for “sweet”, “bitter”, and “anise”.
During the second and third days of testing, the panelists evaluated the samples for the various attributes and rated them on a scale from none to extreme that encompasses all food ingredient products, not just sweeteners. The products and solutions set forth in Table 19 were used to “anchor” the panelist to the scales.
Eight samples were evaluated per session. A 7 minute rest break was given between each sample and a 15 minute break was given after the first 4 samples had been evaluated. Two evaluations (i.e. replicates) were obtained from each panelist for each product; therefore, a total of 20 judgments were obtained for each product. During data collection, the panelists were instructed to indicate the intensity of each sensory characteristic by placing a vertical slash on 15-cm line scales. The serving order was balanced, with products seen approximately an equal number of times in each possible position. In the waiting room, ambient Alhambra drinking water, unsalted soda crackers, and celery were provided for cleansing the palate between samples.
Slash marks on the line scales were converted to numbers ranging from 1 to 15 by SIMS, the computerized sensory data collection system. Mean intensities were calculated for each sensory characteristic. Analysis of Variance and Duncan's Multiple Range Test, where appropriate, were used to determine significant differences among the samples for each attribute. When panelist-by-product interactions were significant, the mean square of the interaction term, instead of the mean square of the error term, was used in calculation of the product F values.
The flavor attributes were also compared between the samples.

[2] = assay type: physicochemical; conditions: pH 3
Method: To determine the solubility of rebaudioside A and rebaudioside B in certain solutions, four stock solutions were prepared. A 10× concentrated citric acid/sodium citrate pH 3 stock buffer solution was prepared by dissolving 0.9 g anhydrous citric acid and 0.26 g of sodium citrate dihydrate in water to make 100 mL of buffer (0.047 M citric acid+0.0088 M sodium citrate). A 2500 ppm (nominal) solution of rebaudioside A was prepared by dissolving 0.125 g of GLG RA 97 to make 50 mL of solution. A 2500 ppm (nominal) solution of stevioside was prepared by dissolving 0.125 g of GLG STV 97 to make 50 mL of solution. A 1000 ppm (nominal) solution of rebaudioside B was prepared by diluting 56 mL of a solution assayed at 1790 ppm to make 100 mL of solution.
These solutions were mixed as 1 mL total amounts by micropipetting the volumes, in microliters, into 1.5 mL microcentrifuge tubes As shown in Table 14.
After standing for […] (~100 hours), the tubes were spun in a bench top microcentrifuge to pelletize the precipitate. The clear supernate was sampled into vials and assayed for glycosides using a reverse phase high performance liquid chromatograph (HPLC) gradient method with UV detection (Waters 2695 Separations Module equipped with a Waters 2487 Dual X Absorbance Detector or equivalent instrumentation) that is summarized in Table 15. The HPLC conditions were as follows:
The supernatant data collected from the HPLC were processed using DESIGN EXPERT 8 software. Briefly, the data were entered into the program as “factor” data as a 2 factor-5 level general factorial design as the nominal data which were then converted to numerical data and replaced by the actual HPLC results. The software then selected a model that predicted the concentration (solubility) of rebaudioside B as a function of the concentration of rebaudioside A and stevioside in the supernatant. The software also calculated a number of statistical factors that indicated the significance of the model parameters.

informal testers = test: Informal testing of bitterness; assay type: in vivo, human; conditions: adding about 20%; as believed by several informal testers
Description: Because the scale used encompasses “the universe”, the magnitude of differences between the 97% rebaudioside A solution and increasing levels of rebaudioside B is not as large as other informal testing determined.

[3] = system: Tate & Lyle employees (taste panel); test: Paired comparison test for sweetness and preference in pH 3.1 citric acid buffer (Examples 1 and 2); assay type: in vivo, human
Method: A commercial blend of a steviol glycosides was dissolved in 0.0056 M citric acid buffer pH 3.1. A solution containing a commercially available sweetening composition containing 97% rebaudioside A was similarly prepared. Thirty-one […] employees participated in paired comparison tests for sweetness and preference. The products were made up in pH 3.1 citric acid buffer (0.9 grams anhydrous citric […], Decatur, IL) and 026 grams sodium citrate dihydrate ([…], Decatur, IL) per liter and tested at room temperature in two ounce soufflé cups label with random three-digit codes. The presentation order was rotated. The panelists were asked to identify the solution that was sweeter and which they like better. The ballot was presented and the data was collected with SIMS sensory software (Sensory Computer Systems, LLC, Morristown, NJ). Bottled water, a 2% sucrose solution, and unsalted crackers were available for the panelists to clear their palates before and during testing. The results of the sweetness and preference questions were analyzed with the binomial test and the Thurstonian d' calculated. The p-value for a one-tailed binomial test is calculated as [formula] where c is the number of successes, n is the number of trials, and p0 is the chance probability. A test is considered statistically significant when the p-value is less than the a priori set alpha risk. The two-tailed p-value is double the one-tailed p-value as calculated above. Thurstonian d' is a linear measure of psychophysical difference. A d' of 1 is generally considered to be a just-noticeable-difference (JND) where a stimulus will be judge stronger in 75% of the trials. The Thurstonian d' is independent of test method and for paired comparison tests is calculated as pc=Φ(d'/√{square root over (2)}) where pc is the proportion of successes, and Φ(•) is the cumulative distribution function of the standard normal distribution. These statistical terms are more fully defined in standard textbooks on the subject such as “Sensory Discrimination Tests and Measurements”, Jian Bi (Blackwell Publishing, 2006). The instructions for the paired comparison test were: • (i) It is important that you rinse before and between samples. • (ii) Clear your palate with a bite of cracker. Then rinse with the sugar water. […] Pick the sample that you like more and pick the sample that is sweeter. They may or may not be the same sample. If you are not sure or don't have a preference then pick either one. The questions for the paired comparison test were: • (i) Which of these two samples do you like more?, • (ii) Which of the two samples is sweeter? The glycoside blend of a steviol glycosides was dissolved in 0.0056 M citric acid buffer pH 3.1. A solution containing a commercially available sweetening composition containing 97% rebaudioside A was similarly prepared. The two solutions were presented to a panel of […] employees and they were asked to identify the solution that was sweeter and which they like better using the same instructions and questions as set forth above. The results of the sweetness and preference questions were analyzed with the binomial test and the Thurstonian d' calculated as set forth above. A taste panel was asked to compare a commercial mixture of rebaudioside A and stevioside to a 500 ppm sample of 97% rebaudioside A. The glycoside blend of steviol glycosides was dissolved in 0.0056 M citric acid buffer pH 3.1. A solution containing a commercially available sweetening composition containing 97% rebaudioside A was similarly prepared. Sample presentation was rotated and the samples of the two solutions (at room temperature) were presented to a panel of […] employees and they were asked to identify the solution that was sweeter and which they like better using the same instructions and questions as in Example 1. […] Another panel was asked to compare a mixture of rebaudioside B and Stevioside. The glycoside blend of steviol glycosides was dissolved in 0.0056 M citric acid buffer pH 3.1. […]

[4] = system: Tate & Lyle employees (taste panel); test: Paired comparison test for sweetness and preference, Reb A/Reb B mixture vs 900 ppm 97% rebaudioside A (Example 3); assay type: in vivo, human; conditions: 536 ppm Reb A + 310 ppm Reb B vs control 900 ppm Reb A; spring water with phosphoric acid; room temperature; test sample tasted first
Method: A taste panel was asked to compare a commercial mixture of rebaudioside A and rebaudioside B and a 900 ppm sample of 97% rebaudioside A. Tate &Lyle employees participated in paired comparison tests for sweetness and preference. Samples were tested at room temperature in two ounce soufflé cups label with random three-digit code& The presentation order was not rotated because of carryover of the off-flavor of rebaudioside A at 900 ppm. The panelist evaluated the test sample first and then the control 900 ppm rebaudioside A sample. The panelists were instructed not to re-taste the samples. Additionally, the panelists were required to wait one minute between testing samples and instructed to clear their palates with a 2% sucrose solution, an unsalted cracker, and bottled water. The panelists were asked to identify the solution that was sweeter and which they like better. The ballot was presented and the data was collected with SIMS sensory software (Sensory Computer Systems, LLC, Morristown, NJ).
The instructions for the paired comparison test were: • (i) It is important that you rinse before and between samples. • (ii) Clear your palate with a bite of cracker. Then rinse with the sugar water. […]

[5] = 900 ppm rebaudioside A+rebaudioside B in neutral pH water, 8% sucrose control, 15-cm line scale converted to 1 to 15, aftertaste
[6] = 900 ppm rebaudioside A+rebaudioside B in neutral pH water, 8% sucrose control, 15-cm line scale converted to 1 to 15, first sip
[7] = 900 ppm rebaudioside A+rebaudioside B in neutral pH water, 8% sucrose control, 15-cm line scale converted to 1 to 15, second sip
[8] = Commercial Blend (total 518 mg/l) vs 97% rebaudioside A (total 498), room temperature, 31 panelists
[9] = Rebaudioside A & stevioside blend (total 789 mg/l) vs 500 ppm 97% rebaudioside A, 41 panelists
[10] = Rebaudioside B & stevioside blend (total 801 mg/l) vs 97% rebaudioside A (500 ppm), 43 panelists
[11] = Rebaudioside B blend (total 496 mg/l, about 21% Reb B) vs 97% rebaudioside A (total 498), 38 panelists

Molecule: OC[C@H]1O[C@@](CO)(O[C@H]2O[C@H](CO)[C@@H](O)[C@H](O)[C@H]2O)[C@@H](O)[C@@H]1O [Sucrose, sucrose]
- ANISE: Aftertaste (mean intensity) [1, 5]: 0.13
- ARTIFICIAL SWEETENER/CHEMICAL: Aftertaste (mean intensity) [1, 5]: 0.12
- SWEET: Aftertaste (mean intensity) [1, 5]: 3.92
- TOTAL FLAVOR: Aftertaste (mean intensity) [1, 5]: 4.32
- TRUE BITTER: Aftertaste (mean intensity) [1, 5]: 0.15
- ANISE: First Sip (mean intensity) [1, 6]: 0.52
- ARTIFICIAL SWEETENER/CHEMICAL: First Sip (mean intensity) [1, 6]: 0.59
- MOUTHCOATING: First Sip (mean intensity) [1, 6]: 0.76
- SWEET: First Sip (mean intensity) [1, 6]: 8.06
- TOTAL FLAVOR: First Sip (mean intensity) [1, 6]: 8.67
- TOTAL OFF FLAVOR: First Sip (mean intensity) [1, 6]: 0.89
- TRUE BITTER: First Sip (mean intensity) [1, 6]: 0.29
- ANISE: Second Sip (mean intensity) [1, 7]: 0.41
- ARTIFICIAL SWEETENER/CHEMICAL: Second Sip (mean intensity) [1, 7]: 0.41
- MOUTHCOATING: Second Sip (mean intensity) [1, 7]: 0.89
- SWEET: Second Sip (mean intensity) [1, 7]: 7.43
- TOTAL FLAVOR: Second Sip (mean intensity) [1, 7]: 7.86
- TOTAL OFF FLAVOR: Second Sip (mean intensity) [1, 7]: 0.49
- TRUE BITTER: Second Sip (mean intensity) [1, 7]: 0.24
- Anise, comparison between the samples ([1]; aftertaste): Lowest
- Artificial Sweetener/Chemical, comparison between the samples ([1]; aftertaste): Lowest
- Sweetness, comparison between the samples ([1]; aftertaste): Lowest
- Total Flavor, comparison between the samples ([1]; aftertaste): Lowest
- True Bitter, comparison between the samples ([1]; aftertaste): Lowest
- Anise, comparison between the samples ([1]; first sip): Lowest
- Artificial Sweetener/Chemical, comparison between the samples ([1]; first sip): Lowest
- Mouthcoating, comparison between the samples ([1]; first sip): Lowest
- Sweetness, comparison between the samples ([1]; first sip): Lowest
- Total Flavor, comparison between the samples ([1]; first sip): Lowest
- Total Off Flavor, comparison between the samples ([1]; first sip): Lowest
- True Bitter, comparison between the samples ([1]; first sip): Lowest
- Anise, comparison between the samples ([1]; second sip): Lowest
- Artificial Sweetener/Chemical, comparison between the samples ([1]; second sip): Lowest
- Mouthcoating, comparison between the samples ([1]; second sip): Lowest
- Total Flavor, comparison between the samples ([1]; second sip): Lowest
- Total Off Flavor, comparison between the samples ([1]; second sip): Lowest
- True Bitter, comparison between the samples ([1]; second sip): Lowest

- effect of its presence on the solubility of rebaudioside B [2]: slightly reduces
Molecule: C=C1C[C@@]23CC[C@H]4[C@@](C)(CCC[C@@]4(C)C(=O)O[C@@H]4O[C@H](CO)[C@@H](O)[C@H](O)[C@H]4O)[C@@H]2CC[C@]1(O[C@@H]1O[C@H](CO)[C@@H](O)[C@H](O)[C@H]1O[C@@H]1O[C@H](CO)[C@@H](O)[C@H](O)[C@H]1O)C3 [stevioside]

- effect of its presence on the solubility of rebaudioside B [2]: increases
Molecule: rebaudioside A
- reduction of bitterness ([1]; adding about 20%, results from the descriptive panel of tasters): about 30%
- reduction of bitterness (informal testers): about 80%

Molecule: rebaudioside A [97% rebaudioside A]
- # preferring [3, 8]: 20
- # sweeter [3, 8]: 15
- # preferring [3, 9]: 37
- # sweeter [3, 9]: 19
- # preferring [3, 10]: 22
- # sweeter [3, 10]: 13
- # preferring [3, 11]: 11
- # sweeter [3, 11]: 11

Molecule: rebaudioside A [control 900 ppm Reb A]
- preference (number of panelists preferring the sample) [4]: 2
- sweetness (number of panelists choosing the sample as sweeter) [4]: 15

Reference: patent US12677850B2, “Stevia blends containing rebaudioside B” (Tate & Lyle Solutions USA LLC, priority 2011, dated 2026)
